The values below come from ChEMBL document CHEMBL4033641, “Design, synthesis and anticancer potential of NSC-319745 hydroxamic acid derivatives as DNMT and HDAC inhibitors” (Eur J Med Chem, 2017).

As usually defined, the inhibition is the change of the read-out against control, counted positive when it falls. As usually defined, the IC50 is the midpoint of a concentration-inhibition curve. High values mean lower potency, low ones higher potency.

The source made the active and inactive calls. No cut-off for these calls is given here.

For data set [1], the target named is DNA (cytosine-5)-methyltransferase 1 (Homo sapiens) (UniProt P26358). The experiment in a line: Inhibition of DNMT1 (unknown origin) at 100 uM using poly(dI-dC).poly(dI-dC) as substrate preincubated for 15 mins followed by substrate/[3H]-SAM addition measured after 120 mins by liquid scintillation counting analysis.
Data set [2] addresses DNMT3A2/3L complex (Homo sapiens) (UniProt Q9Y6K1+Q9UJW3). The experiment in a line: Inhibition of DNMT3A/3L (unknown origin) at 100 uM using biotinylated DNA oligonucleotides as substrate preincubated for 15 mins followed by substrate/[3H]-SAM addition measured after 4 hrs by liquid scintillation counting analysis. Format: protein-complex assay.
Data set [3] concerns the target DNMT3B-DNMT3L complex (Homo sapiens) (UniProt Q9UBC3+Q9UJW3). The data set is described as follows: Inhibition of DNMT3B/3L (unknown origin) at 100 uM using biotinylated DNA oligonucleotides as substrate preincubated for 15 mins followed by substrate/[3H]-SAM addition measured after 4 hrs by liquid scintillation counting analysis. Format: protein-complex assay.
Data set [4] deals with Histone deacetylase 1 (Homo sapiens, UniProt Q13547). The data set is described as follows: Inhibition of HDAC1 (unknown origin) preincubated for 15 mins followed by substrate addition measured after 60 mins by fluorescence assay.
For data set [5], the target named is T1, Protein deacetylase HDAC6 (Homo sapiens, UniProt Q9UBN7).
T1 sequence (Q9UBN7 whole entry): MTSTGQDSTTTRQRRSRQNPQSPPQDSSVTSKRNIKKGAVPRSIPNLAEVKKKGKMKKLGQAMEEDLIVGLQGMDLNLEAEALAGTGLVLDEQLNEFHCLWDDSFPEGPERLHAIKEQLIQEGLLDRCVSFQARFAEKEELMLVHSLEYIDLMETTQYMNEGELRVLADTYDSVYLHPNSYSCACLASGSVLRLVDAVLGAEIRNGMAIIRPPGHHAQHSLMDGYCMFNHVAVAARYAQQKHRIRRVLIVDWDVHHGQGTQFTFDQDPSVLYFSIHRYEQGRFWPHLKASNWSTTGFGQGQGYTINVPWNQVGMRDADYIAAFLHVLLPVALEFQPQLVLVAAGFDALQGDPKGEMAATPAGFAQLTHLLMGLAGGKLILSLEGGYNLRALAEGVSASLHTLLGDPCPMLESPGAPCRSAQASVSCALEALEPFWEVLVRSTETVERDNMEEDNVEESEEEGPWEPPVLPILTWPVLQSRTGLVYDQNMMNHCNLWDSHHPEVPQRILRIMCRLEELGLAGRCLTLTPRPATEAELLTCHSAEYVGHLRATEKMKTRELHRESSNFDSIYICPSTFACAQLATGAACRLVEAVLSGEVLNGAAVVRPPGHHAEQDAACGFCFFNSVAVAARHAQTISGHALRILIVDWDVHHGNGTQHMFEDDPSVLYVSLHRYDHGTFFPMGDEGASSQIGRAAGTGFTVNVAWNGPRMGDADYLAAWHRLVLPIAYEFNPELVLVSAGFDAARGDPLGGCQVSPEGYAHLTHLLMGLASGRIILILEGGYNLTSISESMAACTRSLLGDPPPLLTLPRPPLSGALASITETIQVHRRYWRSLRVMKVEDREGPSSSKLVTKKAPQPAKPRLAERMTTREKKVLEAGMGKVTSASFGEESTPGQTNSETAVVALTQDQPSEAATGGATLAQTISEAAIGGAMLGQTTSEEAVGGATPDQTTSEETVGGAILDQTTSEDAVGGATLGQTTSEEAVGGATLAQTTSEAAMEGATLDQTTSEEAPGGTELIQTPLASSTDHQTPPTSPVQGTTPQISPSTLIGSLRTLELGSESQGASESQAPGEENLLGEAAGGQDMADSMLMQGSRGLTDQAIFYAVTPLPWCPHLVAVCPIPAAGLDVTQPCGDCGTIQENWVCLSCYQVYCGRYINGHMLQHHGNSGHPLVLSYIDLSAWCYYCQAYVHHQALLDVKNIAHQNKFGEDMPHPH
The data set is described as follows: Inhibition of HDAC6 (unknown origin) preincubated for 15 mins followed by substrate addition measured after 60 mins by fluorescence assay.

Data set [6] concerns K562. The data set is described as follows: Antiproliferative activity against human K562 cells after 72 hrs by MTT assay. The format is functional, cell-based. The note with it: K562, 72 h. Background: Tetrazolium assays rely on reduction of a dye to a coloured formazan, in cell work by metabolically active cells.
Data set [7] deals with U-937. The data set is described as follows: Antiproliferative activity against human U937 cells after 72 hrs by MTT assay. As to conditions: U-937, 72 h. The format is functional, cell-based.
Data set [8] deals with U-937. The data set is described as follows: Induction of apoptosis in human U937 cells assessed as necrotic cells at 2.5 uM after 48 hrs by Annexin V-FITC/PI staining based flow cytometry (reference value: 0%). Format: functional. (In general: In flow cytometry, cells or beads pass a laser one at a time.)
For data set [9], the species on record is Homo sapiens. The data set is described as follows: Inhibition of HDAC in human U937 cells assessed as induction of histone H3K9 acetylation after 12 hrs by Western blot analysis. The format is cell-based.
The species entered for data set [10] is Homo sapiens. The data set is described as follows: Inhibition of HDAC in human U937 cells assessed as induction of histone H4K8 acetylation after 12 hrs by Western blot analysis. Format: cell-based. Background: Immunoblotting shows a protein as a band on a membrane.
Data set [11] has as its target DNA (cytosine-5)-methyltransferase 1 (Homo sapiens) (UniProt P26358). The experiment in a line: Inhibition of DNMT1 in human U937 cells assessed as increase in P16INK4A expression level at 1 to 5 uM after 36 hrs by Western blot analysis. The format is cell-based.
For data set [12], the species on record is Homo sapiens. The data set is described as follows: Inhibition of DNMT in human U937 cells assessed as induction of P16 CpG islands demethylation at 1 to 2.5 uM after 36 hrs by PCR analysis. The format is cell-based.
Data set [13] has as its system U-937. The experiment in a line: Induction of apoptosis in human U937 cells assessed as increase in cleaved caspase-3 level at 1 to 5 uM after 36 hrs by Western blot analysis. The format is functional, cell-based.
Data set [14] concerns U-937. The data set is described as follows: Induction of apoptosis in human U937 cells assessed as increase in cleaved PARP expression at 1 to 5 uM after 36 hrs by Western blot analysis. The format is functional, cell-based.
The test system of data set [15] is U-937. The data set is described as follows: Induction of apoptosis in human U937 cells assessed as increase in PARP expression at 1 to 5 uM after 36 hrs by Western blot analysis. The format is functional, cell-based.
The test system of data set [16] is U-937. The data set is described as follows: Induction of apoptosis in human U937 cells assessed as viable cells at 2.5 uM after 48 hrs by Annexin V-FITC/PI staining based flow cytometry (reference value: 99.4%). Format: functional. As to conditions: U-937, 48 h, read-out: Activity.
Data set [17] relates to U-937. The data set is described as follows: Induction of apoptosis in human U937 cells assessed as early apoptotic cells at 2.5 uM after 48 hrs by Annexin V-FITC/PI staining based flow cytometry (reference value: 0.162%). Format: functional.
Data set [18] concerns U-937. The experiment in a line: Induction of apoptosis in human U937 cells assessed as late apoptotic cells at 2.5 uM after 48 hrs by Annexin V-FITC/PI staining based flow cytometry (reference value: 0.438%). Format: functional.
In data set [19] the test system is U-937. The data set is described as follows: Induction of apoptosis in human U937 cells assessed as viable cells at 5 uM after 48 hrs by Annexin V-FITC/PI staining based flow cytometry (reference value: 99.4%). Format: functional. As to conditions: U-937, 48 h, read-out: Activity.
The subject of data set [20] is U-937. The data set is described as follows: Induction of apoptosis in human U937 cells assessed as early apoptotic cells at 5 uM after 48 hrs by Annexin V-FITC/PI staining based flow cytometry (reference value: 0.162%). Format: functional.
Data set [21] deals with U-937. The data set is described as follows: Induction of apoptosis in human U937 cells assessed as late apoptotic cells at 5 uM after 48 hrs by Annexin V-FITC/PI staining based flow cytometry (reference value: 0.438%). Format: functional.
The subject of data set [22] is U-937. The data set is described as follows: Induction of apoptosis in human U937 cells assessed as necrotic cells at 5 uM after 48 hrs by Annexin V-FITC/PI staining based flow cytometry (reference value: 0%). Format: functional.
Data set [23] has as its system U-937. The data set is described as follows: Induction of apoptosis in human U937 cells assessed as viable cells at 10 uM after 48 hrs by Annexin V-FITC/PI staining based flow cytometry (reference value: 99.4%). As to conditions: U-937, 48 h, read-out: Activity. The format is functional.
The subject of data set [24] is U-937. The experiment in a line: Induction of apoptosis in human U937 cells assessed as early apoptotic cells at 10 uM after 48 hrs by Annexin V-FITC/PI staining based flow cytometry (reference value: 0.162%). Format: functional.
In data set [25] the test system is U-937. The experiment in a line: Induction of apoptosis in human U937 cells assessed as late apoptotic cells at 10 uM after 48 hrs by Annexin V-FITC/PI staining based flow cytometry (reference value: 0.438%). The format is functional.
The test system of data set [26] is U-937. The data set is described as follows: Induction of apoptosis in human U937 cells assessed as necrotic cells at 10 uM after 48 hrs by Annexin V-FITC/PI staining based flow cytometry (reference value: 0%). Format: functional.
For data set [27], the system named is U-937. The experiment in a line: Induction of apoptosis in human U937 cells assessed as cell death after 48 hrs by Annexin V-FITC/PI staining based flow cytometry. The format is functional.
The subject of data set [28] is Salmonella typhimurium. The data set is described as follows: Genotoxicity in Salmonella typhimurium TA97 at 50 times IC50 by Ames test. The note with it: salmonella enterica subsp. enterica serovar typhimurium. Format: toxicity.
The test system of data set [29] is Salmonella typhimurium. The data set is described as follows: Genotoxicity in Salmonella typhimurium TA98 at 50 times IC50 by Ames test. The format is toxicity. The note with it: salmonella enterica subsp. enterica serovar typhimurium.
Data set [30] has as its system Salmonella typhimurium. The experiment in a line: Genotoxicity in Salmonella typhimurium TA102 at 50 times IC50 by Ames test. As to conditions: salmonella enterica subsp. enterica serovar typhimurium. The format is toxicity.
Data set [31] has as its system Salmonella typhimurium. The experiment in a line: Genotoxicity in Salmonella typhimurium TA1535 at 50 times IC50 by Ames test. Format: toxicity. As to conditions: salmonella enterica subsp. enterica serovar typhimurium.
Data set [32] concerns U-937. The experiment in a line: Growth inhibition of human U937 cells at 50 uM after 72 hrs by MTT assay. The note with it: U-937, 72 h, read-out: GI. The format is functional.
For data set [33], the system named is K562. The experiment in a line: Growth inhibition of human K562 cells at 50 uM after 72 hrs by MTT assay. The note with it: K562, 72 h, read-out: GI. Format: functional.

DNA (cytosine-5)-methyltransferase 1 (Homo sapiens), sequence (P26358 whole entry): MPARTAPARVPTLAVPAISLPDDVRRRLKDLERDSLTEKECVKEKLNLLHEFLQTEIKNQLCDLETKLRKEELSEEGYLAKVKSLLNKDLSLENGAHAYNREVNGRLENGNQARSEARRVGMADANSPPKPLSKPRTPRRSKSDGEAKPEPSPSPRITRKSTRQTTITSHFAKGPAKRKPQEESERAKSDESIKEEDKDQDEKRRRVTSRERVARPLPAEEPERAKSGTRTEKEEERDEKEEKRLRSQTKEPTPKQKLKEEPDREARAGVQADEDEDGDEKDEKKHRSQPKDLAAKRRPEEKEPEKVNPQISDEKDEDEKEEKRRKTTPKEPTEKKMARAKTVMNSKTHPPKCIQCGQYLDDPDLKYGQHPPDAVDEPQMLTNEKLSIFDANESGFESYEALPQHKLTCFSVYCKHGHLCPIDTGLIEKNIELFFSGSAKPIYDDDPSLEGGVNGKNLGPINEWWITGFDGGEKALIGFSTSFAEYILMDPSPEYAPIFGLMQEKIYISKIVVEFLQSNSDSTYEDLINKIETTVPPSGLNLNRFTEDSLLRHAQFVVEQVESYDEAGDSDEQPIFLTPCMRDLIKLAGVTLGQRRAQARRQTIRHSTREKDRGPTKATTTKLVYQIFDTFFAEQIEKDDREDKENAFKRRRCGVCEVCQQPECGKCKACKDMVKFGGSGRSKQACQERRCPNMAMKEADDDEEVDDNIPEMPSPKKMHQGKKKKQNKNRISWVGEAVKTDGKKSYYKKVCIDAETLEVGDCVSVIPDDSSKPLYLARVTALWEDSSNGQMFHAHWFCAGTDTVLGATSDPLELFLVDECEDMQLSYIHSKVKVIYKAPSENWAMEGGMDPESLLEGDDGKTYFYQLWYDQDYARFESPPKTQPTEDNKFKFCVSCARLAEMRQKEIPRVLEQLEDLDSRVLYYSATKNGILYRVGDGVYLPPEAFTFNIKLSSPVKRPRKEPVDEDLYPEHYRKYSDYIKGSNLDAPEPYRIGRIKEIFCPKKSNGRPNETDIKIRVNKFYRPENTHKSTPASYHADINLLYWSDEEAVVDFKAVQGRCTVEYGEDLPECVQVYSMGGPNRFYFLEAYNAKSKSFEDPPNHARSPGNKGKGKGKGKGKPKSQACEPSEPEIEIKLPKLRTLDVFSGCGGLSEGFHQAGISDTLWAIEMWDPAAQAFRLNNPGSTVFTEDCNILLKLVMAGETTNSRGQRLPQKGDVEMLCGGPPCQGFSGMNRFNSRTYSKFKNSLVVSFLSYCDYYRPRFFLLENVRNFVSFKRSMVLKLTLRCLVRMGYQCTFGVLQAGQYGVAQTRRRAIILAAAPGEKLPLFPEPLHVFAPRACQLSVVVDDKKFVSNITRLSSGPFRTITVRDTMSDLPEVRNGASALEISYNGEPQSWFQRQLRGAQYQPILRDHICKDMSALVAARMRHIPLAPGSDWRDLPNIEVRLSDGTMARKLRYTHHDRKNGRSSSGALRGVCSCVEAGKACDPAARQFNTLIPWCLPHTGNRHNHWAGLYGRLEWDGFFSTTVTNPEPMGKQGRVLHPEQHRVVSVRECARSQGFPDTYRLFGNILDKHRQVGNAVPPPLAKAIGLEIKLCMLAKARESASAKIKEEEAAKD
DNMT3A2/3L complex (Homo sapiens), sequence (Q9UJW3 whole entry, looked up): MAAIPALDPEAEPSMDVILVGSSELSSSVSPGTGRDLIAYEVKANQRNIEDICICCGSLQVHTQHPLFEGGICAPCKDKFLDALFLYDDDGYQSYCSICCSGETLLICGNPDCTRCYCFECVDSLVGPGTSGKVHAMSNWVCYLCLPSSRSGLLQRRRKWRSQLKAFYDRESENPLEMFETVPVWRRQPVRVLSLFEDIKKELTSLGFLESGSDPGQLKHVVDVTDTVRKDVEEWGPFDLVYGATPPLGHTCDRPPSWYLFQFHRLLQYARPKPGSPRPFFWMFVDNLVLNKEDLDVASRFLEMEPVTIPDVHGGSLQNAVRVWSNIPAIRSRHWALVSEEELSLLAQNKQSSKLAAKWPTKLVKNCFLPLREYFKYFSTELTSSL
DNMT3A2/3L complex (Homo sapiens), sequence (Q9Y6K1 whole entry, looked up): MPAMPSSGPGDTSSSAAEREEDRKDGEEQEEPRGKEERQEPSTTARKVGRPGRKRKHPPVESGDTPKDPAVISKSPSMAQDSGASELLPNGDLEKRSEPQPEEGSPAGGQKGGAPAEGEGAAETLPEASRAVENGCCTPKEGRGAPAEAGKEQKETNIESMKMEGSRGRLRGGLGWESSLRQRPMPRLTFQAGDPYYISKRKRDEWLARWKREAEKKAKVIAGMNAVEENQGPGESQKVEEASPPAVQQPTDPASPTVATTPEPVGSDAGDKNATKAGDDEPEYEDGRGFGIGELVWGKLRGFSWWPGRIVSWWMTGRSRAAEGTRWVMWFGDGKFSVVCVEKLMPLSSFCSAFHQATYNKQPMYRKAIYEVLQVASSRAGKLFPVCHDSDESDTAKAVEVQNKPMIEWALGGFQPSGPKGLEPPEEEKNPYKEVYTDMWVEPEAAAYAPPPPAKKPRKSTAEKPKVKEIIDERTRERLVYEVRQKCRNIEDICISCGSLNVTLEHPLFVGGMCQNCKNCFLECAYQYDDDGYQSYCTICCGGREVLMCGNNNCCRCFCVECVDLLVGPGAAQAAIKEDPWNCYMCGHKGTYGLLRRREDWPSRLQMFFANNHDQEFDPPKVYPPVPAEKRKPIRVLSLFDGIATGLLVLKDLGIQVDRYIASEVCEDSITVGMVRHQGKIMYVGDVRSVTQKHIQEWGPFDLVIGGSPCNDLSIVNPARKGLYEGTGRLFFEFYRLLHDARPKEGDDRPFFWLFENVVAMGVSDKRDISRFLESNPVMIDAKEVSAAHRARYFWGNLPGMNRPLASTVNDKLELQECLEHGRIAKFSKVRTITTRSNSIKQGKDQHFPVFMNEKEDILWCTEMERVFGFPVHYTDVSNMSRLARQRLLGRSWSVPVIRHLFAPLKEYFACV
DNMT3B-DNMT3L complex (Homo sapiens), sequence (Q9UJW3 whole entry, looked up, other chains not shown): as the sequence (Q9UJW3 whole entry, looked up) above
Histone deacetylase 1, sequence (Q13547 whole entry): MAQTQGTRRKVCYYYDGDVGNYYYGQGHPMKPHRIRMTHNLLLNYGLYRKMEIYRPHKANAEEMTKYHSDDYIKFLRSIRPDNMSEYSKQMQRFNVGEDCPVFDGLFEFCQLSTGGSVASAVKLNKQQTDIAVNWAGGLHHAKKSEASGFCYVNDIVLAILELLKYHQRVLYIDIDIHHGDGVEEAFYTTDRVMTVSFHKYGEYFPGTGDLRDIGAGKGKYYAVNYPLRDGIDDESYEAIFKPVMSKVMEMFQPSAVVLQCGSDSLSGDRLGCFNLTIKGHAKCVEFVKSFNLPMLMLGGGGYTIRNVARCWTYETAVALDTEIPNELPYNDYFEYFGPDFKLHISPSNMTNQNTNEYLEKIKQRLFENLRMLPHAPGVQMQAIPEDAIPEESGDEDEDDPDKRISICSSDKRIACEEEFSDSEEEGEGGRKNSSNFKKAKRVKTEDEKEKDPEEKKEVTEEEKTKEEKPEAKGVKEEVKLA

As to `O=C(/C=C/c1ccc(CCNC(=O)c2cc(C(F)(F)F)ccc2Cl)cc1)NO`, the inhibition in data set [1] was 69.9 to 70%; in data set [2] it was 23 to 23.4%; in [3] it was 48 to 48.5%; in [9], “Dose-dependent effect”; in [10] it was “Dose-dependent effect”. The IC50 was determined as 56.8 nM in [4], 17.4 nM in data set [5], 2850 nM in data set [6] and 1060 nM in data set [7]. The Activity in data set [8] was 0.452%; in [17] it was 12.9%; in data set [18], 30.7%; in data set [20] it was 48.2%; in data set [21], 50.7%; in data set [22], 0.384%. For the same compound, the Activity was 30.1% in data set [24]; 68.3% in data set [25]; 0.846% in data set [26]; “Dose-dependent effect” in data set [27]; “Non-Toxic” in [28]; “Non-Toxic” in data set [29]. The Activity result in [30] and in [31] was “Non-Toxic” throughout. The inhibition entry in data set [11] and in [12] was “Active” each time. Moreover, the result in data set [13], in data set [14] and in data set [15] was Active. Further, in data set [16], the viability at 2.5 µM turned out to be 56%. Moreover, the viability at 5 µM in data set [19] worked out at 0.725%. Moreover, the viability at 10 µM in data set [23] is 0.784%.
In the case of `COc1ccc(Cl)cc1C(=O)NCCc1ccc(CCC(=O)O)cc1`, the inhibition of growth at 50 µM in data set [32] is 15%; in [33], 20%. Besides, the inhibition was 34 to 34.1% in data set [1], 42% in data set [2] and 6.11% in data set [3].
